Each molecule was assayed against T1, MAGL (Homo sapiens, UniProt Q99685) (assay: 2-AG assay: MAGL inhibitory activity by hydrolysis of 2-arachidonoylglycerol to arachidonic acid, followed by mass spectrometry). Settings: 15 min preincubation, 30 min reaction at RT, 8 μM 2-arachidonoylglycerol.
T1 sequence (Q99685 1-303): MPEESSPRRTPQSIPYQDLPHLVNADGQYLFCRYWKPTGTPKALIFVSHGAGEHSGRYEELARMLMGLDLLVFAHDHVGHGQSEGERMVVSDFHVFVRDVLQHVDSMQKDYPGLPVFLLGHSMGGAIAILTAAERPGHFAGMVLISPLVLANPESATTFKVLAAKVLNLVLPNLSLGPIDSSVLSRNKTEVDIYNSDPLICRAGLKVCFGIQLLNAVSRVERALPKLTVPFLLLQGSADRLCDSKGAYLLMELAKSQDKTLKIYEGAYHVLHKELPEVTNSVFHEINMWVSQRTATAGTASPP
Type: biochemical

SMILES	IC50 [nM]
O=C1COCC2(CN(C(=O)N3CC4(CC(Cc5ccc(OC(F)(F)F)cn5)C4)C3)C2)N1 [Example 177, 2-[6-[[5-(trifluoromethoxy)-2-pyridyl]methyl]-2-azaspiro[3.3]heptane-2-carbonyl]-8-oxa-2,5-diazaspiro[3.5]nonan-6-one]	2.01
O=C1COCC2(CN(C(=O)N3CC4(CC(Cc5cc(C(F)(F)F)ccn5)C4)C3)C2)N1 [Example 178, 2-[6-[[4-(trifluoromethyl)-2-pyridyl]methyl]-2-azaspiro[3.3]heptane-2-carbonyl]-8-oxa-2,5-diazaspiro[3.5]nonan-6-one]	15.4
O=C1CCC2(CN(C(=O)N3CC4(CC(Cc5ccc(OC(F)(F)F)nc5)C4)C3)C2)N1 [Example 179, 2-[6-[[6-(trifluoromethoxy)-3-pyridyl]methyl]-2-azaspiro[3.3]heptane-2-carbonyl]-2,5-diazaspiro[3.4]octan-6-one]	1.66
O=C1COCC2(CN(C(=O)N3CC4(CC(Cc5cncc(F)c5)C4)C3)C2)N1 [Example 180, 2-[6-[(5-fluoro-3-pyridyl)methyl]-2-azaspiro[3.3]heptane-2-carbonyl]-8-oxa-2,5-diazaspiro[3.5]nonan-6-one]	202
CS(=O)(=O)c1ccc(CC2CC3(C2)CN(C(=O)N2CC4(COCC(=O)N4)C2)C3)cc1C(F)(F)F [Example 181, 2-[6-[[4-methylsulfonyl-3-(trifluoromethyl)phenyl]methyl]-2-azaspiro[3.3]heptane-2-carbonyl]-8-oxa-2,5-diazaspiro[3.5]nonan-6-one]	1.45
O=C1COCC2(CN(C(=O)N3CC4(CC(Cc5cccc(S(=O)(=O)C(F)(F)F)c5)C4)C3)C2)N1 [Example 182, 2-[6-[[3-(trifluoromethylsulfonyl)phenyl]methyl]-2-azaspiro[3.3]heptane-2-carbonyl]-8-oxa-2,5-diazaspiro[3.5]nonan-6-one]	485
CS(=O)(=O)c1ccc(CC2CC3(C2)CN(C(=O)N2CC4(COCC(=O)N4)C2)C3)cc1C(F)(F)F [Example 183]	7.31
CS(=O)(=O)c1cc(C(F)(F)F)ccc1CC1CC2(C1)CN(C(=O)N1CC3(COCC(=O)N3)C1)C2 [Example 184, 2-[6-[[2-methylsulfonyl-4-(trifluoromethyl)phenyl]methyl]-2-azaspiro[3.3]heptane-2-carbonyl]-8-oxa-2,5-diazaspiro[3.5]nonan-6-one]	210
CS(=O)(=O)c1cc(C(F)(F)F)ccc1CC1CC2(C1)CN(C(=O)N1CC3(CCCC(=O)N3)C1)C2 [Example 185, 2-[6-[[2-methylsulfonyl-4-(trifluoromethyl)phenyl]methyl]-2-azaspiro[3.3]heptane-2-carbonyl]-2,5-diazaspiro[3.5]nonan-6-one]	34.5
O=C1CCCC2(CN(C(=O)N3CC4(CC(Cc5cccc(S(=O)(=O)C(F)(F)F)c5)C4)C3)C2)N1 [Example 186, 2-[6-[[3-(trifluoromethylsulfonyl)phenyl]methyl]-2-azaspiro[3.3]heptane-2-carbonyl]-2,5-diazaspiro[3.5]nonan-6-one]	95
CS(=O)(=O)c1cccc(CN2CC3(C2)CN(C(=O)N2CC4(COC(=O)N4)C2)C3)c1 [Example 187, 2-[6-[(3-methylsulfonylphenyl)methyl]-2,6-diazaspiro[3.3]heptane-2-carbonyl]-7-oxa-2,5-diazaspiro[3.4]octan-6-one]	46.7
O=C1NC2(CO1)CN(C(=O)N1CC3(CCN(S(=O)(=O)c4ccc(C(F)(F)F)cc4F)CC3)C1)C2 [Example 189, 2-[7-[2-fluoro-4-(trifluoromethyl)phenyl]sulfonyl-2,7-diazaspiro[3.5]nonane-2-carbonyl]-7-oxa-2,5-diazaspiro[3.4]octan-6-one]	1.72
O=C1NC2(CO1)CN(C(=O)N1CC3(C1)CN(S(=O)(=O)c1ccccc1OC(F)(F)F)C3)C2 [Example 190, 2-[2-[2-(trifluoromethoxy)phenyl]sulfonyl-2,6-diazaspiro[3.3]heptane-6-carbonyl]-7-oxa-2,5-diazaspiro[3.4]octan-6-one]	10.4
O=C1NC2(CO1)CN(C(=O)N1CC3(C1)CN(S(=O)(=O)c1ccc(OC(F)(F)F)cc1)C3)C2 [Example 191, 2-[2-[4-(trifluoromethoxy)phenyl]sulfonyl-2,6-diazaspiro[3.3]heptane-6-carbonyl]-7-oxa-2,5-diazaspiro[3.4]octan-6-one]	30
O=C1NC2(CO1)CN(C(=O)N1CC3(C1)CN(S(=O)(=O)c1cccc(OC(F)(F)F)c1)C3)C2 [Example 192, 2-[2-[3-(trifluoromethoxy)phenyl]sulfonyl-2,6-diazaspiro[3.3]heptane-6-carbonyl]-7-oxa-2,5-diazaspiro[3.4]octan-6-one]	14.7
CC1(NS(=O)(=O)N2CC3(CN(C(=O)N4CC5(COC(=O)N5)C4)C3)C2)CC1 [Example 193, N-(1-methylcyclopropyl)-6-(6-oxo-7-oxa-2,5-diazaspiro[3.4]octane-2-carbonyl)-2,6-diazaspiro[3.3]heptane-2-sulfonamide]	65.3

SMILES	IC50 [nM]
O=C1CCC2(CN(C(=O)N3CC4(CCN(S(=O)(=O)c5ccc(C(F)(F)F)cc5F)CC4)C3)C2)N1 [Example 194, 2-[7-[2-fluoro-4-(trifluoromethyl)phenyl]sulfonyl-2,7-diazaspiro[3.5]nonane-2-carbonyl]-2,5-diazaspiro[3.4]octan-6-one]	44.6
O=C1NC2(CO1)CN(C(=O)N1CC3(C1)CN(S(=O)(=O)c1ccc(F)cc1C(F)(F)F)C3)C2 [Example 195, 2-[2-[4-fluoro-2-(trifluoromethyl)phenyl]sulfonyl-2,6-diazaspiro[3.3]heptane-6-carbonyl]-7-oxa-2,5-diazaspiro[3.4]octan-6-one]	2.51
O=C1NC2(CO1)CN(C(=O)N1CC3(C1)CN(S(=O)(=O)c1cncc(C(F)(F)F)c1)C3)C2 [Example 196, 2-[2-[[5-(trifluoromethyl)-3-pyridyl]sulfonyl]-2,6-diazaspiro[3.3]heptane-6-carbonyl]-7-oxa-2,5-diazaspiro[3.4]octan-6-one]	38.8
O=C1NC2(CO1)CN(C(=O)N1CC3(C1)CN(S(=O)(=O)NCC1(C(F)(F)F)CC1)C3)C2 [Example 197, 6-(6-oxo-7-oxa-2,5-diazaspiro[3.4]octane-2-carbonyl)-N-[[1-(trifluoromethyl)cyclopro-pyl]methyl]-2,6-diazaspiro[3.3]heptane-2-sulfonamide]	4.39
O=C1CCC2(CN(C(=O)N3CC4(C3)CN(S(=O)(=O)c3cccc(OC(F)(F)F)c3)C4)C2)N1 [Example 198, 2-[2-[3-(trifluoromethoxy)phenyl]sulfonyl-2,6-diazaspiro[3.3]heptane-6-carbonyl]-2,5-diazaspiro[3.4]octan-6-one]	232
O=C1CCC2(CN(C(=O)N3CC4(C3)CN(S(=O)(=O)c3ccc(OC(F)(F)F)cc3)C4)C2)N1 [Example 199, 2-[2-[4-(trifluoromethoxy)phenyl]sulfonyl-2,6-diazaspiro[3.3]heptane-6-carbonyl]-2,5-diazaspiro[3.4]octan-6-one]	266
O=C1CCC2(CN(C(=O)N3CC4(C3)CN(S(=O)(=O)c3ccccc3OC(F)(F)F)C4)C2)N1 [Example 200, 2-[2-[2-(trifluoromethoxy)phenyl]sulfonyl-2,6-diazaspiro[3.3]heptane-6-carbonyl]-2,5-diazaspiro[3.4]octan-6-one]	116
CNC(=O)c1ccccc1CN1CC2(C1)CN(C(=O)N1CC3(COC(=O)N3)C1)C2 [Example 201, N-methyl-2-[[2-(6-oxo-7-oxa-2,5-diazaspiro[3.4]octane-2-carbonyl)-2,6-diazaspiro[3.3]heptan-6-yl]methyl]benzamide]	165
O=C1NC2(CO1)CN(C(=O)N1CC3(C1)CN(c1ccc(C(F)(F)F)cn1)C3)C2 [Example 202, 2-[6-[5-(trifluoromethyl)-2-pyridyl]-2,6-diazaspiro[3.3]heptane-2-carbonyl]-7-oxa-2,5-diazaspiro[3.4]octan-6-one]	61.4
O=C1NC2(CO1)CN(C(=O)N1CC3(C1)CN(c1ncc(C(F)(F)F)cc1F)C3)C2 [Example 203, 2-[6-[3-fluoro-5-(trifluoromethyl)-2-pyridyl]-2,6-diazaspiro[3.3]heptane-2-carbonyl]-7-oxa-2,5-diazaspiro[3.4]octan-6-one]	61.6
O=C1NC2(CO1)CN(C(=O)N1CC3(CCN(S(=O)(=O)C45CC(C(F)(F)F)(C4)C5)CC3)C1)C2 [Example 204, 2-[7-[[3-(trifluoromethyl)-1-bicyclo[1.1.1]pentanyl]sulfonyl]-2,7-diazaspiro[3.5]nonane-2-carbonyl]-7-oxa-2,5-diazaspiro[3.4]octan-6-one]	11.8
O=C1CCC2(CN(C(=O)N3CC4(CCN(S(=O)(=O)C56CC(C(F)(F)F)(C5)C6)CC4)C3)C2)N1 [Example 205, 2-[7-[[3-(trifluoromethyl)-1-bicyclo[1.1.1]pentanyl]sulfonyl]-2,7-diazaspiro[3.5]nonane-2-carbonyl]-2,5-diazaspiro[3.4]octan-6-one]	265
O=C1NC2(CO1)CN(C(=O)N1CC3(C1)CN(c1cnc(C(F)(F)F)cn1)C3)C2 [Example 206, 2-[6-[5-(trifluoromethyl)pyrazin-2-yl]-2,6-diazaspiro[3.3]heptane-2-carbonyl]-7-oxa-2,5-diazaspiro[3.4]octan-6-one]	278
O=C1NC2(CO1)CN(C(=O)N1CC3(C1)CN(c1ncc(C(F)(F)F)cn1)C3)C2 [Example 207, 2-[6-[5-(trifluoromethyl)pyrimi-din-2-yl]-2,6-diazaspiro[3.3]heptane-2-carbonyl]-7-oxa-2,5-diazaspiro[3.4]octan-6-one]	414
O=C1COCC2(CN(C(=O)N3CC4(CC(NS(=O)(=O)c5cccc(C(F)(F)F)c5)C4)C3)C2)N1 [Example 208, N-[2-(6-oxo-8-oxa-2,5-diazaspiro[3.5]nonane-2-carbonyl)-2-azaspiro[3.3]heptan-6-yl]-3-(trifluoromethyl)benzene-sulfonamide]	67.1

— patent US20240383904A1, “HETEROCYCLIC COMPOUNDS” (Hoffmann-La Roche Inc., priority 2021, published 2024)
